The values that follow come from ChEMBL document CHEMBL3886981, “Phenylpyrazole derivatives as potent ROCK1 and ROCK2 inhibitors” (2016).

The assay has as its target Rho-associated protein kinase 2 (Homo sapiens, UniProt O75116). As to the kind of experiment: In Vitro Assay: The effectiveness of compounds of the present invention as ROCK inhibitors can be determined in a 30 μL assay containing 20 mM HEPES, pH 7.5, 20 mM MgCl2, 0.015% Brij-35, 4 mM DTT, 5 μM ATP and 1.5 μM peptide substrate (FITC-AHA-[…]-OH). Compounds were dissolved in DMSO so that the final concentration of DMSO was <2%, and the reaction was initiated with Rho kinase variants. After incubation, the reaction was terminated by the addition of EDTA and the phosphorylated and non-phosphorylated peptides separated using a LABCHIP® 3000 Reader (Caliper Life Sciences).

Rho-associated protein kinase 2, sequence (O75116 whole entry, looked up, change not shown): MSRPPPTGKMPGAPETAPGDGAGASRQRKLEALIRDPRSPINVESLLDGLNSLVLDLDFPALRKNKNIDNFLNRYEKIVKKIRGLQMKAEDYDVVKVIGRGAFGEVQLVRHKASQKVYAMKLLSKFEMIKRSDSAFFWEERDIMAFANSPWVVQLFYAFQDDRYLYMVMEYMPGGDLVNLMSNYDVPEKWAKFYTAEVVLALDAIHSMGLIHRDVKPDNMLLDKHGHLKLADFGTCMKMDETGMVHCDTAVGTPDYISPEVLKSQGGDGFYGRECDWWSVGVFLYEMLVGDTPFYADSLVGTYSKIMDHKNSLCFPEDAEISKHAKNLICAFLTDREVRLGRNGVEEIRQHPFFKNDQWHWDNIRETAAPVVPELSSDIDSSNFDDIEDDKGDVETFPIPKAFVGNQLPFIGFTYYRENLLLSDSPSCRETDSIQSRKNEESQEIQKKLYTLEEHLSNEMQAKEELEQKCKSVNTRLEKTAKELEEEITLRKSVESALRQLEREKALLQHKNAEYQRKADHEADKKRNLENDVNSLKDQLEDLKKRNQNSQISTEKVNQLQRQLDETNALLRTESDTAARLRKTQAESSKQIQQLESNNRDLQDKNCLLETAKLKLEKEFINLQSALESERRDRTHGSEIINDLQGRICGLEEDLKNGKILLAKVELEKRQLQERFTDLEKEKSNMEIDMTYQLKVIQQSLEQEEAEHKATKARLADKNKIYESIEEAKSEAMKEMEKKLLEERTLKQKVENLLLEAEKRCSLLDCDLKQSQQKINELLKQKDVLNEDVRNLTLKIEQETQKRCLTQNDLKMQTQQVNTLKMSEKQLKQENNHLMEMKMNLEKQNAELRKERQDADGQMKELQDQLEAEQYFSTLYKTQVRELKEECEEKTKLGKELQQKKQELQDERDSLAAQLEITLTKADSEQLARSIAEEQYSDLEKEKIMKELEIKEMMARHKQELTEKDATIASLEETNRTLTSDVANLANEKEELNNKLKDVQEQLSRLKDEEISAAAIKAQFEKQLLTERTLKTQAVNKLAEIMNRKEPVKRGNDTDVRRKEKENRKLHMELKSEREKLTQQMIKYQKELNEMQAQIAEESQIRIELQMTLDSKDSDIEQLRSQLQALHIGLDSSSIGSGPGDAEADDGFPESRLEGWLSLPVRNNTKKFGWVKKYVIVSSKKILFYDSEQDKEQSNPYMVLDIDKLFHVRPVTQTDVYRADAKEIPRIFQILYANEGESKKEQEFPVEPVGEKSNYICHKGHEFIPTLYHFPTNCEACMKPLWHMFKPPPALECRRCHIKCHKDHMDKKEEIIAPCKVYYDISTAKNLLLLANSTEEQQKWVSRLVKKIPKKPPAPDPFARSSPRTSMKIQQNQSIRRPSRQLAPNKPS

Consider `COc1cc(C(=O)NCC2=CCC3NC(=O)NC3=C2)ccc1-c1cn[nH]c1` (stereo unspecified), for which inhibition was half-maximal at 662 nM (IC50).
